Literature values in EP2637636B1, “LEAVE-ON NONSOLID SKIN CONDITIONING COMPOSITIONS CONTAINING 12-HYDROXYSTEARIC ACID” (Unilever PLC, priority 2010, dated 2012).

Details: surfactants used in the Examples

Row | Compound | HLB
1 | CCCCCCCCCCCCNC(=O)[C@H](O)[C@@H](O)[C@H](O[C@@H]1O[C@H](CO)[C@H](O)[C@H](O)[C@H]1O)[C@H](O)CO [C12 lactobionamide] | > 7
2 | Glyceryl hydroxystearate | about 5
3 | Hexadecyl n-methyl glucamide | > 7
4 | Sorbitan Monostearate [Span 60] | 4.7
